Data taken from patent US20040081626A1, “Inhalation particles” (priority 1999, published 2004).

Key:
Type in all cases: physicochemical
[1] = Particle size analysis by electrical low pressure impactor (ELPI), measured gravimetrically; conditions: mass size distribution, dilution ratio 1:10
Protocol: Referring now to FIG. 1b, the particle size distribution was measured by an electrical low pressure impactor (12) (ELPI) connected to a vacuum (13). The particles exiting the tubular tube were passed into a diluter (10), with a dilution ratio of 1:10, before entering the ELPI. Exhaust gas exit (11) was arranged in the diluter. To minimize temperature gradient, and thus to reduce the moisture condensation, the diluter, the line to the diluter and the gas line into the diluter were layered with heating elements, which were kept at a temperature higher than that of the solution dew point. […] It is shown that a narrow size distribution within the range of aerodynamic particle size of interest, i.e. at around 1-5 μm, was obtained.

[2] = Particle crystallinity and polymorphism analysis by X-ray powder diffraction; conditions: for FWHMav: broadening of diffraction maxima positioned at 11.3° and 18.4°
Protocol: Crystallinity and polymorphism of the sample was studied by X-ray powder diffraction (Diffractometer D500, Siemens GmbH, Karlsruhe, Germany). A copper target X-ray (wavelength 0.1541 nm) tube was operated with the power of 40 kV×40 mA. For x-ray powder diffraction analysis, 10 mg of the sample was mounted to a specific cylindrical single crystal mini sample stage, which has a diameter of 10 mm and height of approximately 1 mm. […] The patterns obtained were identical. There were not significant differences in peak positions and additional peaks were not observed. […] The relative degree crystallinity of the powder was also determined based on the x-ray powder diffraction patterns. It is noticed that the powder was well crystallised. The maximum intensities were sharp and well above background intensities. The estimation was based on the broadening of the diffraction maxima (FWHM-values) positioned at 11.3° and 18.4°. It is seen that the relative degree of crystallinity of the powder is 21% higher than that of the reference powder.

[3] = Particle shape and surface structure by FE-SEM; conditions: 2 kV
Description: Referring now to FIG. 1c, individual particles were collected on the surface of a holey carbon film TEM grid (14) connected to a vacuum (15) after particle collection. The morphology of the particles were then imaged using a field emission low voltage scanning electron microscope (FE-SEM) operated at 2 kV acceleration voltage. FIGS. 4a to 4d are scanning electron microscope images of the powder (magnification ×20000 in FIGS. 4b, 4c, 4d and ×23000 in FIG. 4a).

SMILES | aerodynamic particle size distribution [1] | FWHMav [2] | polymorphism ([2]; diffraction pattern compared to reference beclomethasone dipropionate powder) | particle diameter [3] | particle shape and surface structure [3]
CCC(=O)OCC(=O)[C@@]1(OC(=O)CC)[C@@H](C)C[C@H]2[C@@H]3CCC4=CC(=O)C=C[C@]4(C)[C@@]3(Cl)[C@@H](O)C[C@@]21C [Obtained beclomethasone dipropionate powder] | 1-5 μm | 0.26 ° | polymorphic crystal form class I | 2-3 μm | spherical with rough surfaces
CCC(=O)OCC(=O)[C@@]1(OC(=O)CC)[C@@H](C)C[C@H]2[C@@H]3CCC4=CC(=O)C=C[C@]4(C)[C@@]3(Cl)[C@@H](O)C[C@@]21C [Reference powder, beclomethasone dipropionate, reference compound] |  | 0.33 ° |  |  | 
